This note sets out measurements from ChEMBL document CHEMBL4706513, “New insight into 20(S)-ginsenoside Rh2 against T-cell acute lymphoblastic leukemia associated with the gut microbiota and the immune system” (2020).

Molecules are shown by their SMILES. Active and inactive are the calls of the source. The calls are words filed in the database; no cut-off is given here.

Assay [1] concerns Mus musculus. In words: Induction of intestinal homeostasis in SCID/NOD mouse xenografted with human Jurkat cells assessed as upregulation of secretion of IgA from B cells in colon at 40 mg/kg, po administered once a day for 3 weeks by western blot analysis. Particulars: dose 40.0 mg/kg/day. In kind it is functional, organism-based.
In assay [2] the test system is Mus musculus. The assay is described as follows: Induction of intestinal homeostasis in SCID/NOD mouse xenografted with human Jurkat cells assessed as increase in Reg3b expression in colon at 40 mg/kg, po administered once a day for 3 weeks by Western blot analysis. In kind it is functional, organism-based. To be noted: dose 40.0 mg/kg/day.
The subject of assay [3] is Mus musculus. In words: Induction of intestinal homeostasis in SCID/NOD mouse xenografted with human Jurkat cells assessed as increase in Reg3g expression in colon at 40 mg/kg, po administered once a day for 3 weeks by Western blot analysis. Type of assay: functional, organism-based. Particulars: dose 40.0 mg/kg/day.
Assay [4] has as its system Mus musculus. In words: Inhibition of intestinal inflammation in SCID/NOD mouse xenografted with human Jurkat cells assessed as decrease in TLR4 expression in colon at 40 mg/kg, po administered once a day for 3 weeks by Western blot analysis. In kind it is functional, organism-based. Particulars: dose 40.0 mg/kg/day. A general note: In xenograft studies the graft and the host belong to different species.

Assay [5] has as its system Mus musculus. In words: Inhibition of intestinal inflammation in SCID/NOD mouse xenografted with human Jurkat cells assessed as decrease in MYD88 expression in colon at 40 mg/kg, po administered once a day for 3 weeks by Western blot analysis. In kind it is functional, organism-based. Particulars: dose 40.0 mg/kg/day.
The subject of assay [6] is Mus musculus. The assay is described as follows: Inhibition of intestinal inflammation in SCID/NOD mouse xenografted with human Jurkat cells assessed as decrease in LPS level in colon at 40 mg/kg, po administered once a day for 3 weeks by ELISA. In kind it is functional, organism-based. Particulars: dose 40.0 mg/kg/day.
Assay [7] concerns Mus musculus. The assay is described as follows: Inhibition of intestinal inflammation in SCID/NOD mouse xenografted with human Jurkat cells assessed as decrease in TNFalpha level in colon at 40 mg/kg, po administered once a day for 3 weeks by ELISA. Type of assay: functional, organism-based. To be noted: dose 40.0 mg/kg/day.
The subject of assay [8] is Mus musculus. In words: Inhibition of intestinal inflammation in SCID/NOD mouse xenografted with human Jurkat cells assessed as decrease in IL1beta level in colon at 40 mg/kg, po administered once a day for 3 weeks by ELISA. In kind it is functional, organism-based. To be noted: dose 40.0 mg/kg/day.
Assay [9] has as its system Mus musculus. The assay is described as follows: Inhibition of intestinal inflammation in SCID/NOD mouse xenografted with human Jurkat cells assessed as decrease in IL-6 level in colon at 40 mg/kg, po administered once a day for 3 weeks by ELISA. In kind it is functional, organism-based. Particulars: dose 40.0 mg/kg/day.
Assay [10] concerns Mus musculus. In words: Inhibition of intestinal inflammation in SCID/NOD mouse xenografted with human Jurkat cells assessed as increase in IL-10 level in colon at 40 mg/kg, po administered once a day for 3 weeks by ELISA. Particulars: dose 40.0 mg/kg/day. In kind it is functional, organism-based.
Assay [11] has as its system Mus musculus. The assay is described as follows: Inhibition of intestinal inflammation in SCID/NOD mouse xenografted with human Jurkat cells assessed as increase in TGFbeta level in colon at 40 mg/kg, po administered once a day for 3 weeks by ELISA. In kind it is functional, organism-based. To be noted: dose 40.0 mg/kg/day.
Assay [12] deals with Mus musculus. The assay is described as follows: Induction of intestinal homeostasis in SCID/NOD mouse xenografted with human Jurkat cells assessed as decrease in disordered arrangement of epithelial cells in the colon at 40 mg/kg, po administered once a day for 3 weeks by AB-PAS staining based microscopic analysis. Type of assay: functional, organism-based. Particulars: dose 40.0 mg/kg/day.

Assay [13] relates to Mus musculus. The assay is described as follows: Inhibition of intestinal dysbiosis in SCID/NOD mouse xenografted with human Jurkat cells assessed as increase in abundance of Bacteroidetes in cecum at 40 mg/kg, po administered once a day for 3 weeks by multiplexed 16S rRNA gene sequencing analysis. Type of assay: functional, organism-based. To be noted: dose 40.0 mg/kg/day.

Assay [14] deals with Mus musculus. In words: Inhibition of intestinal dysbiosis in SCID/NOD mouse xenografted with human Jurkat cells assessed as increase in abundance of Verrucomicrobia in cecum at 40 mg/kg, po administered once a day for 3 weeks by multiplexed 16S rRNA gene sequencing analysis. In kind it is functional, organism-based. To be noted: dose 40.0 mg/kg/day.
Assay [15] has as its system Mus musculus. The assay is described as follows: Inhibition of intestinal dysbiosis in SCID/NOD mouse xenografted with human Jurkat cells assessed as decrease in abundance of Firmicutes in cecum at 40 mg/kg, po administered once a day for 3 weeks by multiplexed 16S rRNA gene sequencing analysis. Type of assay: functional, organism-based. Particulars: dose 40.0 mg/kg/day.

The subject of assay [16] is Mus musculus. The assay is described as follows: Inhibition of intestinal dysbiosis in SCID/NOD mouse xenografted with human Jurkat cells assessed as decrease in abundance of Proteobacteria in cecum at 40 mg/kg, po administered once a day for 3 weeks by multiplexed 16S rRNA gene sequencing analysis. In kind it is functional, organism-based. Particulars: dose 40.0 mg/kg/day.

Assay [17] concerns Mus musculus. The assay is described as follows: Inhibition of intestinal dysbiosis in SCID/NOD mouse xenografted with human Jurkat cells assessed as decrease in ratio of Firmicutes to Bacteroidetes in cecum at 40 mg/kg, po administered once a day for 3 weeks by multiplexed 16S rRNA gene sequencing analysis. Type of assay: functional. To be noted: dose 40 mg/kg/day.
Assay [18] deals with Mus musculus. The assay is described as follows: Inhibition of intestinal dysbiosis in SCID/NOD mouse xenografted with human Jurkat cells assessed as increase in abundance of Akkermansia in cecum at 40 mg/kg, po administered once a day for 3 weeks by multiplexed 16S rRNA gene sequencing analysis. To be noted: dose 40.0 mg/kg/day. In kind it is functional, organism-based.
Assay [19] relates to Mus musculus. The assay is described as follows: Inhibition of intestinal dysbiosis in SCID/NOD mouse xenografted with human Jurkat cells assessed as increase in abundance of Lactobacillus in cecum at 40 mg/kg, po administered once a day for 3 weeks by multiplexed 16S rRNA gene sequencing analysis. To be noted: dose 40.0 mg/kg/day. In kind it is functional, organism-based.

Assay [20] concerns Mus musculus. In words: Inhibition of intestinal dysbiosis in SCID/NOD mouse xenografted with human Jurkat cells assessed as increase in abundance of Lachnospiraceae_ NK4A136_group in cecum at 40 mg/kg, po administered once a day for 3 weeks by multiplexed 16S rRNA gene sequencing analysis. Particulars: dose 40.0 mg/kg/day. Type of assay: functional, organism-based.
Assay [21] relates to Mus musculus. The assay is described as follows: Inhibition of intestinal dysbiosis in SCID/NOD mouse xenografted with human Jurkat cells assessed as decrease in abundance of parabacteroides in cecum at 40 mg/kg, po administered once a day for 3 weeks by multiplexed 16S rRNA gene sequencing analysis. Particulars: dose 40.0 mg/kg/day. In kind it is functional, organism-based.

Assay [22] relates to Mus musculus. In words: Inhibition of intestinal dysbiosis in SCID/NOD mouse xenografted with human Jurkat cells assessed as decrease in abundance of Alistipes in cecum at 40 mg/kg, po administered once a day for 3 weeks by multiplexed 16S rRNA gene sequencing analysis. Type of assay: functional, organism-based. Particulars: dose 40.0 mg/kg/day.
For assay [23], the system named is Mus musculus. In words: Induction of intestinal homeostasis in SCID/NOD mouse xenografted with human Jurkat cells assessed as decrease in enlarged colon tissue at 40 mg/kg, po administered once a day for 3 weeks by AB-PAS staining based microscopic analysis. To be noted: dose 40.0 mg/kg/day. Type of assay: functional, organism-based.
Assay [24] concerns Mus musculus. The assay is described as follows: Induction of intestinal homeostasis in SCID/NOD mouse xenografted with human Jurkat cells assessed as reduction in crypt depth in colon at 40 mg/kg, po administered once a day for 3 weeks by AB-PAS staining based microscopic analysis. In kind it is functional, organism-based. To be noted: dose 40.0 mg/kg/day.

`CC(C)=CCC[C@](C)(O)[C@H]1CC[C@]2(C)[C@@H]1[C@H](O)C[C@@H]1[C@@]3(C)CC[C@H](O[C@@H]4O[C@H](CO)[C@@H](O)[C@H](O)[C@H]4O)C(C)(C)[C@@H]3CC[C@]12C` [GINSENOSIDE RH2]: the outcome in the assay on Mus musculus [1], in the assay on Mus musculus [2], in the assay with Mus musculus [3], in the assay on Mus musculus [12], with Mus musculus [23] and in the assay on Mus musculus [24] was Active. Moreover, the inhibition entry in the assay with Mus musculus [4], in the assay on Mus musculus [5], in the assay with Mus musculus [6], in the assay with Mus musculus [7], in the assay with Mus musculus [8] and in the assay with Mus musculus [9] was “Active” throughout. Besides, the inhibition entry with Mus musculus [10], in the assay on Mus musculus [11], in the assay with Mus musculus [13], with Mus musculus [14], in the assay on Mus musculus [15] and with Mus musculus [16] was “Active” in each case. Besides, the inhibition entry in the assay on Mus musculus [18], in the assay on Mus musculus [19], in the assay with Mus musculus [20], in the assay on Mus musculus [21] and with Mus musculus [22] was “Active” in each case. Further, the Ratio in the assay on Mus musculus [17] worked out at 0.47.
